According to ChEMBL document CHEMBL1201862, “PubChem BioAssay data set” (2004):
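Test compounds were applied to cells in 96-well plates for 48 hours at 5 doses. At the GI50, growth is halved.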 The source made the active and inactive calls. No stated cut-off is given here; in the data, active = GI50 up to about 1.1 µM and inactive = higher.

Columns and labels:
Assay in all cases: NCI-60 cell line screen, 48 h
786-0 = tested on: 786-0
A549 = tested on: A549
ACHN = tested on: ACHN
CAKI-1 = tested on: CAKI-1
CCRF-CEM = tested on: CCRF-CEM
COLO 205 = tested on: COLO 205
DLD-1 = tested on: DLD-1
EKVX = tested on: EKVX
HCC 2998 = tested on: HCC 2998
HCT-116 = tested on: HCT-116
HCT-15 = tested on: HCT-15
HL-60 = tested on: HL-60
HOP-18 = tested on: HOP-18
HOP-62 = tested on: HOP-62
HOP-92 = tested on: HOP-92
HT-29 = tested on: HT-29
IGROV-1 = tested on: IGROV-1
K562 = tested on: K562
KM-20L2 = tested on: KM-20L2
KM12 = tested on: KM12
LOX IMVI = tested on: LOX IMVI
LXFL 529 = tested on: LXFL 529
M14 = tested on: M14
M19-MEL = tested on: M19-MEL
MOLT-4 = tested on: MOLT-4
Malme-3M = tested on: Malme-3M
NCI-H23 = tested on: NCI-H23
NCI-H522 = tested on: NCI-H522
OVCAR-3 = tested on: OVCAR-3
OVCAR-8 = tested on: OVCAR-8
RPMI-8226 = tested on: RPMI-8226
RXF 393 = tested on: RXF 393
SF-268 = tested on: SF-268
SF-295 = tested on: SF-295
SK-MEL-28 = tested on: SK-MEL-28
SK-MEL-2 = tested on: SK-MEL-2
SK-MEL-5 = tested on: SK-MEL-5
SK-OV-3 = tested on: SK-OV-3
SN12C = tested on: SN12C
SNB-19 = tested on: SNB-19
SNB-75 = tested on: SNB-75
SNB-78 = tested on: SNB-78
SR = tested on: SR
SW-620 = tested on: SW-620
TK-10 = tested on: TK-10
U-251 = tested on: U-251
UACC-257 = tested on: UACC-257
UACC-62 = tested on: UACC-62
UO-31 = tested on: UO-31
A498 = tested on: A498
DMS-114 = tested on: DMS-114
DMS-273 = tested on: DMS-273
NCI-H226 = tested on: NCI-H226
NCI-H460 = tested on: NCI-H460
OVCAR-4 = tested on: OVCAR-4
OVCAR-5 = tested on: OVCAR-5
SF-539 = tested on: SF-539
XF498 = tested on: XF498

SMILES: O=C1Nc2ccc(Br)cc2/C1=N/Nc1ccc([N+](=O)[O-])cc1[N+](=O)[O-]
- GI50 (786-0): 2.77 µM (inactive)
- GI50 (A549): 5.47 µM (inactive)
- GI50 (ACHN): 2.82 µM (inactive)
- GI50 (CAKI-1): 13.9 µM (inactive)
- GI50 (CCRF-CEM): 3.02 µM (inactive)
- GI50 (COLO 205): 2.47 µM (inactive)
- GI50 (DLD-1): 4.58 µM (inactive)
- GI50 (EKVX): 11.3 µM (inactive)
- GI50 (HCC 2998): 10.2 µM (inactive)
- GI50 (HCT-116): 1.55 µM (inactive)
- GI50 (HCT-15): 3.12 µM
- GI50 (HL-60): 1.92 µM (inactive)
- GI50 (HOP-18): 1.12 µM (inactive)
- GI50 (HOP-62): 5.7 µM (inactive)
- GI50 (HOP-92): 1.98 µM (inactive)
- GI50 (HT-29): 3.78 µM (inactive)
- GI50 (IGROV-1): 7.74 µM (inactive)
- GI50 (K562): 3.05 µM (inactive)
- GI50 (KM-20L2): 3.14 µM (inactive)
- GI50 (KM12): 4.13 µM (inactive)
- GI50 (LOX IMVI): 1.73 µM (inactive)
- GI50 (LXFL 529): 3.66 µM (inactive)
- GI50 (M14): 4.8 µM (inactive)
- GI50 (M19-MEL): 3.54 µM (inactive)
- GI50 (MOLT-4): 3.44 µM (inactive)
- GI50 (Malme-3M): 3.08 µM (inactive)
- GI50 (NCI-H23): 2.49 µM (inactive)
- GI50 (NCI-H522): 2.42 µM (inactive)
- GI50 (OVCAR-3): 5.82 µM (inactive)
- GI50 (OVCAR-8): 3.93 µM (inactive)
- GI50 (RPMI-8226): 2.81 µM (inactive)
- GI50 (RXF 393): 4.15 µM (inactive)
- GI50 (SF-268): 4.33 µM (inactive)
- GI50 (SF-295): 3.91 µM (inactive)
- GI50 (SK-MEL-28): 3.33 µM (inactive)
- GI50 (SK-MEL-2): 2.13 µM (inactive)
- GI50 (SK-MEL-5): 1.83 µM (inactive)
- GI50 (SK-OV-3): 12.5 µM (inactive)
- GI50 (SN12C): 3.04 µM (inactive)
- GI50 (SNB-19): 4.71 µM (inactive)
- GI50 (SNB-75): 4.1 µM (inactive)
- GI50 (SNB-78): 4.51 µM (inactive)
- GI50 (SR): 2.86 µM (inactive)
- GI50 (SW-620): 3.18 µM (inactive)
- GI50 (TK-10): 17.1 µM (inactive)
- GI50 (U-251): 4.22 µM (inactive)
- GI50 (UACC-257): 3.89 µM (inactive)
- GI50 (UACC-62): 3.85 µM (inactive)
- GI50 (UO-31): 2.48 µM (inactive)

SMILES: C1CCN2CC3CONC3C2C1 (stereo not given)
- GI50 (786-0): > 100 µM (inactive)
- GI50 (A498): > 100 µM (inactive)
- GI50 (A549): > 100 µM (inactive)
- GI50 (ACHN): > 100 µM (inactive)
- GI50 (CAKI-1): > 100 µM (inactive)
- GI50 (CCRF-CEM): > 100 µM (inactive)
- GI50 (COLO 205): > 100 µM (inactive)
- GI50 (DLD-1): > 100 µM (inactive)
- GI50 (DMS-114): > 100 µM (inactive)
- GI50 (DMS-273): > 100 µM (inactive)
- GI50 (EKVX): > 100 µM (inactive)
- GI50 (HCC 2998): > 100 µM (inactive)
- GI50 (HCT-116): > 100 µM (inactive)
- GI50 (HCT-15): > 100 µM
- GI50 (HL-60): > 100 µM (inactive)
- GI50 (HOP-62): > 100 µM (inactive)
- GI50 (HT-29): > 100 µM (inactive)
- GI50 (IGROV-1): > 100 µM (inactive)
- GI50 (K562): > 100 µM (inactive)
- GI50 (KM-20L2): > 100 µM (inactive)
- GI50 (KM12): > 100 µM (inactive)
- GI50 (LOX IMVI): > 100 µM (inactive)
- GI50 (LXFL 529): > 100 µM (inactive)
- GI50 (M14): > 100 µM (inactive)
- GI50 (M19-MEL): > 100 µM (inactive)
- GI50 (MOLT-4): > 100 µM (inactive)
- GI50 (Malme-3M): > 100 µM (inactive)
- GI50 (NCI-H226): > 100 µM (inactive)
- GI50 (NCI-H23): > 100 µM (inactive)
- GI50 (NCI-H460): > 100 µM (inactive)
- GI50 (NCI-H522): > 100 µM (inactive)
- GI50 (OVCAR-3): > 100 µM (inactive)
- GI50 (OVCAR-4): > 100 µM (inactive)
- GI50 (OVCAR-5): > 100 µM (inactive)
- GI50 (OVCAR-8): > 100 µM (inactive)
- GI50 (RPMI-8226): > 100 µM (inactive)
- GI50 (RXF 393): > 100 µM (inactive)
- GI50 (SF-268): > 100 µM (inactive)
- GI50 (SF-295): > 100 µM (inactive)
- GI50 (SF-539): > 100 µM (inactive)
- GI50 (SK-MEL-28): > 100 µM (inactive)
- GI50 (SK-MEL-2): > 100 µM (inactive)
- GI50 (SK-MEL-5): > 100 µM (inactive)
- GI50 (SN12C): > 100 µM (inactive)
- GI50 (SNB-19): > 100 µM (inactive)
- GI50 (SNB-75): > 100 µM (inactive)
- GI50 (SNB-78): > 100 µM (inactive)
- GI50 (SW-620): > 100 µM (inactive)
- GI50 (TK-10): > 100 µM (inactive)
- GI50 (U-251): > 100 µM (inactive)
- GI50 (UACC-257): > 100 µM (inactive)
- GI50 (UACC-62): > 100 µM (inactive)
- GI50 (UO-31): > 100 µM (inactive)
- GI50 (XF498): > 100 µM (inactive)

SMILES: O=c1c2cccnc2ncn1CCN1CCCC1
- GI50 (786-0): > 100 µM (inactive)
- GI50 (A549): > 100 µM (inactive)
- GI50 (ACHN): > 100 µM (inactive)
- GI50 (CAKI-1): > 100 µM (inactive)
- GI50 (CCRF-CEM): > 100 µM (inactive)
- GI50 (COLO 205): > 100 µM (inactive)
- GI50 (DLD-1): > 100 µM (inactive)
- GI50 (DMS-114): > 100 µM (inactive)
- GI50 (DMS-273): > 100 µM (inactive)
- GI50 (EKVX): > 100 µM (inactive)
- GI50 (HCC 2998): > 100 µM (inactive)
- GI50 (HCT-116): > 100 µM (inactive)
- GI50 (HOP-62): > 100 µM (inactive)
- GI50 (HOP-92): > 100 µM (inactive)
- GI50 (HT-29): > 100 µM (inactive)
- GI50 (IGROV-1): > 100 µM (inactive)
- GI50 (K562): > 100 µM (inactive)
- GI50 (KM-20L2): > 100 µM (inactive)
- GI50 (KM12): > 100 µM (inactive)
- GI50 (LOX IMVI): > 100 µM (inactive)
- GI50 (LXFL 529): > 100 µM (inactive)
- GI50 (M14): > 100 µM (inactive)
- GI50 (M19-MEL): > 100 µM (inactive)
- GI50 (MOLT-4): > 100 µM (inactive)
- GI50 (Malme-3M): > 100 µM (inactive)
- GI50 (NCI-H226): > 100 µM (inactive)
- GI50 (NCI-H23): > 100 µM (inactive)
- GI50 (NCI-H460): > 100 µM (inactive)
- GI50 (NCI-H522): > 100 µM (inactive)
- GI50 (OVCAR-3): > 100 µM (inactive)
- GI50 (OVCAR-4): > 100 µM (inactive)
- GI50 (OVCAR-5): > 100 µM (inactive)
- GI50 (OVCAR-8): > 100 µM (inactive)
- GI50 (RXF 393): > 100 µM (inactive)
- GI50 (SF-268): > 100 µM (inactive)
- GI50 (SF-295): > 100 µM (inactive)
- GI50 (SF-539): > 100 µM (inactive)
- GI50 (SK-MEL-28): > 100 µM (inactive)
- GI50 (SK-MEL-2): > 100 µM (inactive)
- GI50 (SK-MEL-5): > 100 µM (inactive)
- GI50 (SK-OV-3): > 100 µM (inactive)
- GI50 (SN12C): > 100 µM (inactive)
- GI50 (SNB-19): > 100 µM (inactive)
- GI50 (SNB-75): > 100 µM (inactive)
- GI50 (SNB-78): > 100 µM (inactive)
- GI50 (SR): > 100 µM (inactive)
- GI50 (SW-620): > 100 µM (inactive)
- GI50 (TK-10): > 100 µM (inactive)
- GI50 (U-251): > 100 µM (inactive)
- GI50 (UACC-62): > 100 µM (inactive)
- GI50 (UO-31): > 100 µM (inactive)
- GI50 (XF498): > 100 µM (inactive)
